For 37 compounds, LC retention time results are on record in the RepoRT retention time repository.

The data set is described as follows: HILIC, Waters Atlantis Premier BEH Z-HILIC, 100 × 2.1 mm, 1.7 µm, 40 °C, 0.15 mL/min, estimated dead time 1.5 min; A: water + 20 mM ammonium carbonate + 5 µM medronic acid; B: 10% water + 90% acetonitrile + 2 mM ammonium carbonate + 0.5 µM medronic acid; gradient (min/%B) 0/95 18/55 18.1/20 21.5/20 22/95 23.5/95 25.5/95. The conditions noted are these: stereoisomer not certain.

Each structure is given as a SMILES string.

Consider `O=C(O)CCC(=O)C(=O)O` [2-Oxoglutaric acid], for which the LC retention time was 8.94 min. Consider `O=C(O)CCC(O)C(=O)O` (configuration not stated) [2-hydroxy glutaric acid], for which the LC retention time was 9.45 min.

Take `Nc1ncnc2c1ncn2C1OC(COP(=O)(O)OP(=O)(O)O)C(O)C1O` (configuration not stated) [ADP]: the LC retention time was 11.3 min. For `Nc1ncnc2c1ncn2C1OC(COP(=O)(O)O)C(O)C1O` (configuration not stated) [AMP], the LC retention time was 9.36 min. With `Nc1ncnc2c1ncn2C1OC(COP(=O)(O)OP(=O)(O)OP(=O)(O)O)C(O)C1O` (configuration not stated) [ATP], the LC retention time was 13.2 min. As for `CC(=O)SCCNC(=O)CCNC(=O)C(O)C(C)(C)COP(=O)(O)OP(=O)(O)OCC1OC(n2cnc3c(N)ncnc32)C(O)C1OP(=O)(O)O` (configuration not stated) [Acetyl-CoA], the LC retention time was 10.1 min. As for `Nc1ncnc2c1ncn2C1OC(CO)C(O)C1O` (configuration not stated) [Adenosine], the figure is 4.11 min. The result for `NC(N)=NCCCC(N)C(=O)O` (configuration not stated) [Arginine] reads 19.3 min; that for `O=C(O)CCCCC1SCC2NC(=O)NC21` (configuration not stated) [Biotin], 4.5 min. Take `C[N+](C)(C)CC(O)CC(=O)[O-]` (configuration not stated) [Carnitine]: the LC retention time is 9.85 min. Consider `O=C(O)CC(O)(CC(=O)O)C(=O)O` [Citric acid], for which the LC retention time was 13.8 min. The result for `CC(C)(COP(=O)(O)OP(=O)(O)OCC1OC(n2cnc3c(N)ncnc32)C(O)C1OP(=O)(O)O)C(O)C(=O)NCCC(=O)NCCS` (configuration not stated) [CoenzymeA] reads 11.8 min. The result for `Cc1cc2nc3c(=O)[nH]c(=O)nc-3n(CC(O)C(O)C(O)COP(=O)(O)OP(=O)(O)OCC3OC(n4cnc5c(N)ncnc54)C(O)C3O)c2cc1C` (configuration not stated) [FAD] reads 7.24 min. The result for `O=C(CO)C(O)C(O)C(O)COP(=O)(O)O` (configuration not stated) [Fructose 6-phosphate] reads 11.3 min; that for `O=P(O)(O)OCC1OC(O)(COP(=O)(O)O)C(O)C1O` (configuration not stated) [Fructose-1,6-bisphosphate], 15.5 min.

Take `Nc1nc2c(ncn2C2OC(COP(=O)(O)OP(=O)(O)OP(=O)(O)O)C(O)C2O)c(=O)[nH]1` (configuration not stated) [GTP]: the LC retention time was 15.7 min.

Consider `O=P(O)(O)OCC1OC(O)C(O)C(O)C1O` (configuration not stated) [Glucose-6-phosphate], for which the LC retention time is 12.3 min. For the compound `NC(CCC(=O)O)C(=O)O` (configuration not stated) [Glutamic acid], the LC retention time is 9.67 min. For `NC(=O)CCC(N)C(=O)O` (configuration not stated) [Glutamine], the LC retention time is 10.3 min.

For `O=P(O)(O)OCC(O)CO` (configuration not stated) [Glycerol-3-phosphate], the LC retention time is 10.2 min.

As to `OCC1OC(O)C(O)C(O)C1O` (configuration not stated) [Hexose], the LC retention time was 7.63 min. For `O=C(O)CC(C(=O)O)C(O)C(=O)O` (configuration not stated) [Isocitric acid], the LC retention time was 13.5 min. With `CCC(C)C(N)C(=O)O` (configuration not stated) [Isoleucine], the LC retention time is 6.42 min. Regarding `CC(O)C(=O)O` (configuration not stated) [Lactic Acid], the LC retention time is 3.43 min. For the compound `CC(C)CC(N)C(=O)O` (configuration not stated) [Leucine], the LC retention time is 6.03 min.

`NCCCCC(N)C(=O)O` (configuration not stated) [Lysine]: the LC retention time is 19.5 min.

`NC(=O)C1=CN(C2OC(COP(=O)(O)OP(=O)(O)OCC3OC(n4cnc5c(N)ncnc54)C(O)C3O)C(O)C2O)C=CC1` (configuration not stated) [NADH]: the LC retention time was 8.54 min. Take `NC(=O)C1=CN(C2OC(COP(=O)(O)OP(=O)(O)OCC3OC(n4cnc5c(N)ncnc54)C(OP(=O)(O)O)C3O)C(O)C2O)C=CC1` (configuration not stated) [NADPH]: the LC retention time was 13.7 min. As for `NC(=O)c1ccc[n+](C2OC(COP(=O)(O)OP(=O)(O)OCC3OC(n4cnc5c(N)ncnc54)C(OP(=O)(O)O)C3O)C(O)C2O)c1` (configuration not stated) [NADP], the figure is 13.2 min; as for `NC(=O)c1ccc[n+](C2OC(COP(=O)(O)OP(=O)(O)OCC3OC(n4cnc5c(N)ncnc54)C(O)C3O)C(O)C2O)c1` (configuration not stated) [NAD], 10.2 min.

Turning to `C=C(OP(=O)(O)O)C(=O)O` [PEP], the LC retention time was 13.3 min. In the case of `O=C(O)C(CO)OP(=O)(O)O` (configuration not stated) [Phosphoglyceric acid A], the LC retention time was 12.4 min. The result for `O=C(O)CCC(=O)O` [Succinic Acid] reads 9.51 min; that for `O=C(CO)COP(=O)(O)O` [Triose phosphate], 10.2 min. On to `CC(=O)NC1C(OP(=O)(O)OP(=O)(O)OCC2OC(n3ccc(=O)[nH]c3=O)C(O)C2O)OC(CO)C(O)C1O` (configuration not stated) [UDP-GlcNAc], for which the LC retention time was 9.78 min. Regarding `CCC(=O)OC(CC(=O)[O-])C[N+](C)(C)C` (configuration not stated) [carnitine-C3], the LC retention time was 6.52 min. Turning to `O=C1CC(C(=O)O)NC(=O)N1` (configuration not stated) [dihydroorotic acid], the LC retention time was 4.59 min.
